Data published in ChEMBL document CHEMBL3525953, “In vitro cytochrome P450-mediated metabolism of exemestane” (Drug Metab Dispos, 2011).

Key:
Assay type in all cases: ADME
Liver microsome [1] = experiment: Drug metabolism in human liver microsomes assessed as retention time at 50 uM after 10 mins by HPLC with UV analysis
Cytochrome P450 2B6 [2] = target: T1, Cytochrome P450 2B6 (Homo sapiens, UniProt P20813); experiment: Drug metabolism assessed as human recombinant CYP2B6-mediated 6-Hydroxymethylexemestane formation rate per pmol of enzyme at 10 uM after 10 mins
T1 sequence (P20813 whole entry): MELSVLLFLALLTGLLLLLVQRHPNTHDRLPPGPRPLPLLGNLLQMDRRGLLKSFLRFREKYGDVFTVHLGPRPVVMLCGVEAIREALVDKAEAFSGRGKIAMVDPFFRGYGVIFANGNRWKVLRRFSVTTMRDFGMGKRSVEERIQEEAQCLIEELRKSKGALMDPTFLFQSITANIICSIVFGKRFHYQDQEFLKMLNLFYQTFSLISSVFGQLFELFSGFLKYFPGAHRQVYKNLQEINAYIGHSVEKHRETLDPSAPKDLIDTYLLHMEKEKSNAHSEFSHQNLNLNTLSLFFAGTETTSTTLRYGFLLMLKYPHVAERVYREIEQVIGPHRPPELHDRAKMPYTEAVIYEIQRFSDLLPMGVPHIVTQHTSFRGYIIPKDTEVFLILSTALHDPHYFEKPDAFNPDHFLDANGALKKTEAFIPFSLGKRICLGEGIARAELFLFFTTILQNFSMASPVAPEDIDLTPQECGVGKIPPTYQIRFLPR

Cytochrome P450 2B6 [3] = target: T1, Cytochrome P450 2B6; experiment: Drug metabolism assessed as human recombinant CYP2B6-mediated 6-Hydroxymethylexemestane formation at 10 uM after 10 mins by Michaelis-Menten saturation curve analysis; details: recombinant enzyme
Cytochrome P450 2C19 [4] = target: T2, Cytochrome P450 2C19 (Homo sapiens, UniProt P33261); experiment: Drug metabolism assessed as human recombinant CYP2C19-mediated 6-Hydroxymethylexemestane formation rate per pmol of enzyme at 10 uM after 10 mins
Liver microsome [5] = experiment: Drug metabolism in human liver microsomes assessed as 6-hydroxymethylexemestane formation at 10 uM after 10 mins by LC-MS/MS analysis
Liver microsome [6] = experiment: Drug metabolism in human liver microsomes assessed as 6-hydroxymethylexemestane formation after 10 mins by Michaelis-Menten saturation curve analysis
Cytochrome P450 2C8 [7] = target: T3, Cytochrome P450 2C8 (Homo sapiens, UniProt P10632); experiment: Drug metabolism assessed as human recombinant CYP2C8-mediated 6-Hydroxymethylexemestane formation rate per pmol of enzyme at 10 uM after 10 mins
T3 sequence (P10632 whole entry): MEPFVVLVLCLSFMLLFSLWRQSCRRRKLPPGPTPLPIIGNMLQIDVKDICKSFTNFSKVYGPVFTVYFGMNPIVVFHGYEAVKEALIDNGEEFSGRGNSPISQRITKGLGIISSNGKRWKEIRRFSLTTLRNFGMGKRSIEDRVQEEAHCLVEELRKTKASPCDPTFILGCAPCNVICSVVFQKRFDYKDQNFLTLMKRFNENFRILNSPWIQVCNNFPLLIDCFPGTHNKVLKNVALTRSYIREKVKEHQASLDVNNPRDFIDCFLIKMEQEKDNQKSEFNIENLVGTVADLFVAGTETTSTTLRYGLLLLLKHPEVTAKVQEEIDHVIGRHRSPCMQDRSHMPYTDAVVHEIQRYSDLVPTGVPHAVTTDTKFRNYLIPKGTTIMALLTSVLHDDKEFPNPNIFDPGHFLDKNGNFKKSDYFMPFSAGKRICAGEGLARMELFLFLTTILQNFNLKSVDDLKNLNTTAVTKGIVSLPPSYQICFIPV

Cytochrome P450 2C9 [8] = target: T4, Cytochrome P450 2C9 (Homo sapiens, UniProt P11712); experiment: Drug metabolism assessed as human recombinant CYP2C9-mediated 6-Hydroxymethylexemestane formation rate per pmol of enzyme at 10 uM after 10 mins
Cytochrome P450 2C8 [9] = target: T3, Cytochrome P450 2C8; experiment: Drug metabolism assessed as human recombinant CYP2C8-mediated 6-Hydroxymethylexemestane formation at 10 uM after 10 mins by Michaelis-Menten saturation curve analysis; details: recombinant enzyme
Cytochrome P450 3A5 = Cytochrome P450 3A5 (Homo sapiens, UniProt P20815); experiment: Drug metabolism assessed as human recombinant CYP3A5-mediated 6-Hydroxymethylexemestane formation rate per pmol of enzyme at 10 uM after 10 mins
Liver microsome [10] = experiment: Drug metabolism in human liver microsomes assessed as retention time treated with 300 uM of exemestane after 10 mins by HPLC with UV analysis
Cytochrome P450 1A1 = target: T5, Cytochrome P450 1A1 (Homo sapiens, UniProt P04798); experiment: Drug metabolism assessed as human recombinant CYP1A1-mediated 6-Hydroxymethylexemestane formation rate per pmol of enzyme at 10 uM after 10 mins
T5 sequence (P04798 whole entry): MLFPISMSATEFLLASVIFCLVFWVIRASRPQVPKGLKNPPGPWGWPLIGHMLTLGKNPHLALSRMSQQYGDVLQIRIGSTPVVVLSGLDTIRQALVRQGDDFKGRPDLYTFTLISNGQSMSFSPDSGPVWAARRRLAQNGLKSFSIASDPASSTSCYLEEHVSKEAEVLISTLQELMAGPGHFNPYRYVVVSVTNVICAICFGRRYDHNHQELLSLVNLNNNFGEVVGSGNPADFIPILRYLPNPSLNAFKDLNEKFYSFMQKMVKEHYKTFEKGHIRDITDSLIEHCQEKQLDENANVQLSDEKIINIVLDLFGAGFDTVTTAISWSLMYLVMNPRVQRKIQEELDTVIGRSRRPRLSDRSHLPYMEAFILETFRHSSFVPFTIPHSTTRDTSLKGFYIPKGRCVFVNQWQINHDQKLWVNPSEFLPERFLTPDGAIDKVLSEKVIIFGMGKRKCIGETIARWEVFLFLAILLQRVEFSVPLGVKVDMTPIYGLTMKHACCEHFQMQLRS

Cytochrome P450 3A4 = Cytochrome P450 3A4 (Homo sapiens, UniProt P08684); experiment: Drug metabolism assessed as human recombinant CYP3A4-mediated 6-Hydroxymethylexemestane formation rate per pmol of enzyme at 10 uM after 10 mins
Cytochrome P450 2C9 [11] = target: T4, Cytochrome P450 2C9; experiment: Drug metabolism assessed as human recombinant CYP2C9-mediated 6-Hydroxymethylexemestane formation at 10 uM after 10 mins by Michaelis-Menten saturation curve analysis; details: recombinant enzyme
Cytochrome P450 2C19 [12] = target: T2, Cytochrome P450 2C19; experiment: Drug metabolism assessed as human recombinant CYP2C19-mediated 6-Hydroxymethylexemestane formation at 10 uM after 10 mins by Michaelis-Menten saturation curve analysis; details: recombinant enzyme
Cytochrome P450 2B6 [13] = target: T1, Cytochrome P450 2B6; experiment: Drug metabolism assessed as human recombinant CYP2B6-mediated 17-hydroexemestane and 6-Hydroxymethylexemestane formation assessed as inhibition of metabolite formation at 10 uM after 10 mins by Michaelis-Menten saturation curve analysis in presence of 5 uM thioTEPA; parameters: interact cpd dose 5 uM; details: recombinant enzyme
Liver microsome [14] = experiment: Drug metabolism in human liver microsomes assessed as retention time at 300 uM after 10 mins by HPLC with UV analysis
Cytochrome P450 2E1 = Cytochrome P450 2E1 (Homo sapiens, UniProt P05181); experiment: Drug metabolism assessed as human recombinant CYP2E1-mediated 17-hydroexemestane and 6-Hydroxymethylexemestane formation assessed as inhibition of metabolite formation at 10 uM after 10 mins by Michaelis-Menten saturation curve analysis in presence of 50 uM diethylthiocarbamate; parameters: interact cpd dose 50 uM; details: recombinant enzyme
Sequence of Cytochrome P450 2E1 (P05181 whole entry): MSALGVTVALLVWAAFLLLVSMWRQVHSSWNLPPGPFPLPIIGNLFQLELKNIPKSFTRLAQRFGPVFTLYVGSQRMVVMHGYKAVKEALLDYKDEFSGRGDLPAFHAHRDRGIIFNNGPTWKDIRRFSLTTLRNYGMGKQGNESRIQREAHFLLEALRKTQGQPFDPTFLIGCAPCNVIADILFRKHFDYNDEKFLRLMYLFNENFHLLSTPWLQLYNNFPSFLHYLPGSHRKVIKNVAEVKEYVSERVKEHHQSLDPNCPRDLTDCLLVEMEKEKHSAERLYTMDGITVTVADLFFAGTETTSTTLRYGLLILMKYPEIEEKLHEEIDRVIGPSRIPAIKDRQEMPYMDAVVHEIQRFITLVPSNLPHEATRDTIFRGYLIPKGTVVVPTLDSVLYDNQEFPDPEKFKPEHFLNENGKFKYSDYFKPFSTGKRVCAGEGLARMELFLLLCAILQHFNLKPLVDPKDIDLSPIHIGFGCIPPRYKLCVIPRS

T2 sequence (P33261 whole entry): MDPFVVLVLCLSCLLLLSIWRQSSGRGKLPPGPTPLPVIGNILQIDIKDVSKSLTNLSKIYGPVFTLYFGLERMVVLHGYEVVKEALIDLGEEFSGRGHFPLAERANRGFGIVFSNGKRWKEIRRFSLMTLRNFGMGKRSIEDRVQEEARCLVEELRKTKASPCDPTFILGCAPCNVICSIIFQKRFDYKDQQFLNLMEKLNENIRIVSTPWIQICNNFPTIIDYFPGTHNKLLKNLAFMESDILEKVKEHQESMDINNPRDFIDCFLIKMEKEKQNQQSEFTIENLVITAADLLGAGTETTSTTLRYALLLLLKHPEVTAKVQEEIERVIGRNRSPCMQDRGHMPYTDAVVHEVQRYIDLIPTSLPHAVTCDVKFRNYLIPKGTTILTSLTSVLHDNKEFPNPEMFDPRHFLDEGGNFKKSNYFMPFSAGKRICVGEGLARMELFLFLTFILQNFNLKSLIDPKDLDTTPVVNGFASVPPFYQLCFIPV
T4 sequence (P11712 whole entry): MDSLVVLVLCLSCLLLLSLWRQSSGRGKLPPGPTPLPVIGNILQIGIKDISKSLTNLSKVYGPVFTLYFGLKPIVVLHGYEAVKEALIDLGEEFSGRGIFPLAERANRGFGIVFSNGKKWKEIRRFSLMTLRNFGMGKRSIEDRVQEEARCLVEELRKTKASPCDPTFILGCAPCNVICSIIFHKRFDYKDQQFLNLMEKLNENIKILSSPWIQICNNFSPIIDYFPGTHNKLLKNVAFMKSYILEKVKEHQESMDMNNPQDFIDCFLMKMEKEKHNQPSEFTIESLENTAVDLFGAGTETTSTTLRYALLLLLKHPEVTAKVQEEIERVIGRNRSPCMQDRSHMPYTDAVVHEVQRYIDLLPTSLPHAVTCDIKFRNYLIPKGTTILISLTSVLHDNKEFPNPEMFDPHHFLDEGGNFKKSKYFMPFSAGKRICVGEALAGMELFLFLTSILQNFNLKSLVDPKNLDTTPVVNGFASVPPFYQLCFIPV
Sequence of Cytochrome P450 3A5 (P20815 whole entry): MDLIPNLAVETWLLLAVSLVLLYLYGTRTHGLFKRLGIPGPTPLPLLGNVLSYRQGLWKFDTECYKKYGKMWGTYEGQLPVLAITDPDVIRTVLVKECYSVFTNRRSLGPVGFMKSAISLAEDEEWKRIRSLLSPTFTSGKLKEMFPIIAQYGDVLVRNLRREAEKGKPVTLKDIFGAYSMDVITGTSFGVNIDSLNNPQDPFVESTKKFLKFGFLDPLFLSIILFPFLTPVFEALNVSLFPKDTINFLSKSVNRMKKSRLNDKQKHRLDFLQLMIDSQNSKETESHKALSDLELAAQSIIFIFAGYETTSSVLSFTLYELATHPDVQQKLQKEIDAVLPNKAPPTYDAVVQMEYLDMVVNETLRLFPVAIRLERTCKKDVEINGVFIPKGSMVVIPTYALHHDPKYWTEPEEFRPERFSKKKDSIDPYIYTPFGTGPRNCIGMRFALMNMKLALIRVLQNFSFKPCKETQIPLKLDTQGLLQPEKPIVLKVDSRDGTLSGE
Sequence of Cytochrome P450 3A4 (P08684 whole entry): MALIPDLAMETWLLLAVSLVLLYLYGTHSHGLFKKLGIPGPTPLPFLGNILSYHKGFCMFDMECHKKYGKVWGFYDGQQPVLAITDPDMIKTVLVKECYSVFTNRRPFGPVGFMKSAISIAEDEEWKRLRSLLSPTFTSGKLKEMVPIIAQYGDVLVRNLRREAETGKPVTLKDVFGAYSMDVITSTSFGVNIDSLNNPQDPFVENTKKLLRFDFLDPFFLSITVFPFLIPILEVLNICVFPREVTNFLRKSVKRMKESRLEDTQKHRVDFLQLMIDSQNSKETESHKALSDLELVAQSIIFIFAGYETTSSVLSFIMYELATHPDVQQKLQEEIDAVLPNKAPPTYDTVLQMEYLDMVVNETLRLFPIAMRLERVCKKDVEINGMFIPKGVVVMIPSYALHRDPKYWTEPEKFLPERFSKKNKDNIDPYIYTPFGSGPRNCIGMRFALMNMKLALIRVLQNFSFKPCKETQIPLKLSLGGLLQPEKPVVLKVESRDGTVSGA

Question: C#CC1(O)CC[C@H]2[C@@H]3CCC4=CC(=O)CC[C@@H]4[C@H]3CC[C@@]21CC (stereo not given in full) [NORGESTREL] was tested. Which Retention_time (Liver microsome [1]) did it give?
Answer: 20.2 min

Question: C[C@]12C=CC(=O)C=C1C(CO)=C[C@@H]1[C@@H]2CC[C@]2(C)C(=O)CC[C@@H]12 was tested. Which Drug metabolism (Cytochrome P450 2B6 [2]) did it give?
Answer: 0.1 pmol/min

Question: What about the “Vmax(app)” value (Cytochrome P450 2B6 [3]) of the same compound?
Answer: 1.93 pmol/mg/min

Question: What about the Km (Cytochrome P450 2B6 [3]; read-out: Km(app)) of the same compound?
Answer: 9 µM

Question: And the Drug metabolism (Cytochrome P450 2C19 [4])?
Answer: metabolite_detected

Question: And the “Vmax(app)” value (Liver microsome [5])?
Answer: 200.47 pmol/mg/min

Question: What about the “Vmax(app)” value (Liver microsome [6]) of the same compound?
Answer: 781.15 pmol/mg/min

Question: And the Km (Liver microsome [6]; read-out: Km(app))?
Answer: 37.1 µM

Question: And the Drug metabolism (Cytochrome P450 2C8 [7])?
Answer: metabolite_detected

Question: And the Drug metabolism (Cytochrome P450 2C9 [8])?
Answer: metabolite_detected

Question: And the Drug metabolism (Cytochrome P450 2C8 [9])?
Answer: metabolite_detected

Question: And the Drug metabolism (Cytochrome P450 3A5)?
Answer: 0.3 pmol/min

Question: What about the Retention_time (Liver microsome [10]) of the same compound?
Answer: 6.4 min

Question: And the Drug metabolism (Cytochrome P450 1A1)?
Answer: metabolite_detected

Question: And the Drug metabolism (Cytochrome P450 3A4)?
Answer: 0.42 pmol/min

Question: And the Drug metabolism (Cytochrome P450 2C9 [11])?
Answer: metabolite_detected

Question: And the Drug metabolism (Cytochrome P450 2C19 [12])?
Answer: metabolite_detected

Question: What does the source list for C=C1C[C@@H]2[C@H](CC[C@]3(C)C(=O)CC[C@@H]23)[C@@]2(C)C=CC(=O)C=C12 [EXEMESTANE]?
Answer: inhibition (INH) (Cytochrome P450 2B6 [13]): < 20%; Retention_time (Liver microsome [14]): 15.6 min; inhibition (INH) (Cytochrome P450 2E1): < 20%
